{"source": "patent US12582809B2", "about": "“Treatment of a disease of the gastrointestinal tract with a PDE4 inhibitor” (BT Bidco, Inc., priority 2018, dated 2026)", "key": {"[1]": {"set-up": "species or system Yorkshire-Cross farm swine", "conditions": "in vivo", "procedure": "The primary objective of this study was to compare the tissue, plasma, rectal sample, and GI content pharmacokinetics of tacrolimus through oral versus intra-cecal ingestible device delivery in normal Yorkshire-Cross farm swine.\n(§1) No further randomization procedure was employed.\nAnimals in Group 1 received an ingestible device containing 0.8 mL of vehicle solution (80% alcohol, 20% HCO-60). Animals in Group 2 received orally […] liquid formulation of tacrolimus at 4 mg/0.8 mL per animal (Prograf: 5 mg/mL). Animals in Group 3 received intra-cecally an ingestible device containing tacrolimus at 1 mg in 0.8 mL per ingestible device. Animals in Group 4 received intra-cecally an ingestible device containing tacrolimus at 2 mg in 0.8 mL per ingestible device. Animals in Group 5 received intra-cecally an ingestible device containing tacrolimus at 4 mg in 0.8 mL per ingestible device. To control for potential confounding effects of the surgery, all groups fast on Day −11 at least 24 hr before being subjected to anesthesia followed by surgical placements of a cecal port by a veterinary surgeon at Day −10. All animals were fasted for at least 12 hr prior to dosing on Day 1. Animals were dosed via either intra-cecal dosing (IC) or oral dosing (PO) at Day 1 (between 6-8 p.m.). All animals resumed feeding at approximately 4 hours after dose (11-12 p.m. after dosing).\nAnimals in Group 1 (Vehicle Control) were administered a single intra-cecal ingestible device containing 0.8 mL Vehicle solution (80% alcohol, 20% castor oil (HCO-60) on Day 1. On Day −10 the animals were anesthetized, and a veterinary surgeon surgically placed an intra-cecal port in each animal. On Day 1, each animal was placed into a sling then a single intra-cecal ingestible device containing 0.8 mL vehicle solution (80% alcohol, 20% castor oil (HCO-60)) is introduced by the veterinary surgeon into the cecum via the cecal port in each animal. Following ingestible device placement, the animals were removed from the slings and placed back into their pens with water. All animals resumed feeding at approximately 4 hours after dose. […] A total of 60 samples were collected.\nApproximately 200˜400 mg of rectal content were collected, if available, with a fecal swab (Copan Diagnostics Nylon Flocked Dry Swabs, 502CS01). The fecal swab was pre-weighed and weighed after collection in the collection tube (Sterile Tube and Cap No Media, PFPM913S), and the sample weight was recorded. The fecal swab was broken via the breakpoint, and was stored in the collection tube, and immediately frozen at −70° C. […] Immediately following euthanasia, tissue was collected.\nFor tissue necropsy, small intestine fluid and cecal fluid were collected separately from all the animals into two separate square plastic bottles, and stored at −20° C. The length and diameter of the cecum and the colon was measured from one animal in each group and recorded for reference. Tissues were collected for pharmacokinetic analyses and include mesenteric lymph nodes, a Peyer's Patch, and five gastrointestinal sections, including cecum, proximal colon, transverse colon, distal colon, and rectum. All samples were weighed, and the tissue sample weights were recorded. In each of the five gastrointestinal sections, tissue samples were collected in three different areas where the mucosal surface was visible and not covered by luminal content by using an 8.0-mm punch biopsy tool. Around 3 grams of the total punched sample were collected into a pre-weighed 15-mL conical tube, and the tissue weight was recorded. Three mesenteric lymph nodes were collected from different areas and weighed. At least one Peyer's Patch was collected and weighed.\nLuminal contents were collected for pharmacokinetic analyses from the surface of the tissue from each of five gastrointestinal sections: cecum, proximal colon, transverse colon, distal colon, and rectum (total of 75). […]"}, "[2]": {"experiment": "Pharmacokinetic study of oral vs intra-cecal administration of tacrolimus (Example 13)", "set-up": "species or system Yorkshire-Cross farm swine", "conditions": "in vivo, 0.09 mg/kg", "from_the_text": "as §1"}, "[3]": {"conditions": "female, Yorkshire-Cross, pig, po, 12 h"}}, "data": [{"smiles": "C=CC[C@@H]1/C=C(\\C)C[C@H](C)C[C@H](OC)[C@H]2O[C@@](O)(C(=O)C(=O)N3CCCC[C@H]3C(=O)O[C@H](/C(C)=C/[C@@H]3CC[C@@H](O)[C@H](OC)C3)[C@H](C)[C@@H](O)CC1=O)[C@H](C)C[C@@H]2OC", "note": "[tacrolimus]", "values": [{"measurement": "exposure AUC", "setting": "[1]", "value": "< 2000-12 ng·h/mL"}, {"measurement": "luminal content concentration, distal colon, IC capsule vs PO", "setting": "[1]", "value": "Significantly higher"}, {"measurement": "luminal content concentration, spiral colon, IC capsule vs PO", "setting": "[1]", "value": "Significantly higher"}, {"measurement": "luminal content concentration, transverse colon, IC capsule vs PO", "setting": "[1]", "value": "Significantly higher"}, {"measurement": "tissue concentration, spiral colon, IC capsule vs PO", "setting": "[1]", "value": "Significantly higher"}, {"measurement": "tissue concentration, transverse colon, IC capsule vs PO", "setting": "[1]", "value": "Significantly higher"}, {"measurement": "level of tacrolimus detected in tissue", "setting": "[1]; po", "value": "No measurable level"}, {"measurement": "Kp at 12 h", "setting": "[2]; female, Yorkshire-Cross, pig, po", "value": 0}, {"measurement": "Ratio Tissue(mean) (ng/g)/Trough(12 hr) (ng/mL), Cecum", "setting": "[2]; [3]", "value": 0}, {"measurement": "Ratio Tissue(mean) (ng/g)/Trough(12 hr) (ng/mL), Distal Colon", "setting": "[2]; [3]", "value": 0}, {"measurement": "Ratio Tissue(mean) (ng/g)/Trough(12 hr) (ng/mL), Proximal Colon", "setting": "[2]; [3]", "value": 0}, {"measurement": "Ratio Tissue(mean) (ng/g)/Trough(12 hr) (ng/mL), Transverse colon", "setting": "[2]; [3]", "value": 0}, {"measurement": "Trough (12 hr)", "setting": "[2]; female, Yorkshire-Cross, swine, po, 12 h", "value": 0.568, "unit": "ng/mL"}, {"measurement": "concentration at 12 h", "setting": "[2]; female, Yorkshire-Cross, swine, po, Trough (12 hr)", "value": "0.568 ± 0.291", "unit": "ng/mL"}, {"measurement": "AUC0-12 hours in the blood, intra-cecal vs oral", "setting": "[2]", "value": "higher"}, {"measurement": "mean concentration in the blood, intra-cecal vs oral", "setting": "[2]", "value": "higher"}]}]}
